From PubChem BioAssay (NCI)
Values joined by “and” are separate entries in the source; they are usually repeats but may differ in a detail not shown here. Equal values may be shown once.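 Where inhibition never reached the appropriate level, the endpoint shown equals the highest concentration tested. Otherwise, values were interpolated linearly from a five-concentration, 48-hour dose response in 96-well plates. Here, GI50 denotes the concentration required for 50% inhibition of growth. Definition used: TGI = concentration required for complete inhibition of growth.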

How the values were obtained:
Assay in all cases: growth of human tumour cells (NCI), 48 h
HCC-2998 colon = system: HCC-2998 colon
786-0 renal = system: 786-0 renal
SK-OV-3 ovarian = system: SK-OV-3 ovarian
SK-MEL-5 melanoma = system: SK-MEL-5 melanoma
HCT-116 colon = system: HCT-116 colon
MDA-MB-435 = system: MDA-MB-435
A498 renal = system: A498 renal
NCI/ADR-RES ovarian = system: NCI/ADR-RES ovarian

| SMILES | GI50 (HCC-2998 colon) | TGI (HCC-2998 colon) | GI50 (786-0 renal) | TGI (786-0 renal) | GI50 (SK-OV-3 ovarian) | TGI (SK-OV-3 ovarian) | GI50 (SK-MEL-5 melanoma) | TGI (SK-MEL-5 melanoma) | GI50 (HCT-116 colon) | TGI (HCT-116 colon) | GI50 (MDA-MB-435) | TGI (MDA-MB-435) | GI50 (A498 renal) [µM] | TGI (A498 renal) [µM] | GI50 (NCI/ADR-RES ovarian) | TGI (NCI/ADR-RES ovarian) |
| --- | --- | --- | --- | --- | --- | --- | --- | --- | --- | --- | --- | --- | --- | --- | --- | --- |
| CNC(=O)c1cc(Oc2ccc3nc(NC(=O)Nc4ccc(CN5CCOCC5)c(C(F)(F)F)c4)sc3c2)ccn1 | 3 µM | 7.11 µM | 2.22 µM | 4.32 µM | 2.18 µM | 4.81 µM | 1.01 µM | 2.22 µM | 1.78 µM | 3.62 µM | 1.83 µM | 4.38 µM | 1.9 | 4.05 | 2.07 µM | 5.37 µM |
| O=CC(OC(=O)c1ccccc1)C(OC(=O)c1ccccc1)C(COC(c1ccccc1)(c1ccccc1)c1ccccc1)OC(=O)c1ccccc1 (stereo not given) | 17.4 µM | 31.5 µM | 20 µM | 41 µM | 21.3 µM | 48.2 µM | 15.4 µM | 30.3 µM | 6.21 µM | 19 µM | 12.8 µM | 46.7 µM | 15.5 | 29.7 | 19.3 µM | 45.4 µM |
| CC/C=C\C[C@H]1C/C=C2/C(=O)C=C[C@H]2C/C=C\CCCC(=O)O1 | 2.37 µM | 8.43 µM | 3.24 µM | 10.2 µM | 5.67 µM | 13.1 µM | 1.74 µM | 7.27 µM | 1 µM | 2.55 µM | 1.66 µM | 6.04 µM | 7.21 | 14.4 | 1.47 µM | > 50 µM |
| Nc1nc(N)c2c(n1)NC(c1sc(Cl)nc1Cl)CC(c1ccccc1)=N2 (stereo not given) | 10.3 µM | 21.9 µM | 5.05 µM | 19.2 µM | 3.6 µM | 15.3 µM | 3.69 µM | 13.9 µM | 3.7 µM | 13.9 µM | 1.47 µM | 10.2 µM | 1.28 | 8.92 | 3.13 µM | 12.4 µM |
| COc1ccc(-c2nn(-c3cccc(Cl)c3)cc2/C=C2\NC(=S)N(c3ccc(Cl)cc3)C2=O)cc1 | 7.93 µM | > 25 µM | 5.57 µM | > 25 µM | 3.77 µM | 8.22 µM | 4.22 µM | 11 µM | 3.18 µM | 7.75 µM | 7.38 µM | > 25 µM | 3.51 | 8.56 | 5.51 µM | 14.5 µM |
| CCN(C(=O)N1CCN(c2cc3c(cc2F)c(=O)c(C(=O)O)cn3C2CC2)CC1)c1nc(-c2ccccc2)cs1 | 3.28 µM | 79.3 µM | 2.47 µM | 15.5 µM | 2.1 µM | 6.86 µM | 3.63 µM | 55.6 µM | 2.64 µM | > 100 µM | 2.87 µM | 11.6 µM |  |  | 2.88 µM | > 100 µM |
| O=C1Cc2c(-c3ccccc3)cc(-c3ccccc3)nc2-c2ccccc2N1 |  | 11.5 µM | 4.14 µM | 72.5 µM |  | 18.9 µM |  | 7.58 µM |  | 5.37 µM |  | > 100 µM |  | 59.2 |  | 18.6 µM |
| CC1(C)OB(c2ccc(N(CCOS(C)(=O)=O)CCOS(C)(=O)=O)cc2)OC1(C)C | 15.7 µM | 49 µM | 3.41 µM | 21.6 µM | 34.3 µM | > 100 µM | 16.2 µM | 38.2 µM | 10.5 µM | 24.7 µM | 23 µM | 53.4 µM |  |  | 15.8 µM | 65.2 µM |
| CC1=C(C(=O)Nc2cccc(Cl)c2)C(c2ccccc2O)C(C(=O)Nc2cccc(Cl)c2)=C(C)N1 |  | 33.1 µM |  | 29.2 µM |  | 54.4 µM |  | 31.5 µM |  |  |  |  |  | 38 |  |  |
| COc1ccc2[nH]c(Cl)c(/C=C3/C(=O)Nc4ccccc43)c2c1 |  |  | 0.282 µM | 0.937 µM | 0.865 µM | 16.9 µM | 0.0902 µM | 0.722 µM | 0.238 µM | 1.17 µM | 0.251 µM | 0.708 µM |  |  | 0.715 µM | 3.38 µM |
| Nc1n[n+]([O-])c2cc([N+](=O)[O-])ccc2[n+]1[O-] |  |  |  | 17.3 µM |  | 61.2 µM |  | 20.6 µM |  | 16.5 µM |  | 3.26 µM |  | 36.6 |  | 32.8 µM |
| Cc1ccc2c(c1)[n+](=O)c(C(=O)c1cccs1)c(C(F)(F)F)n2[O-] | 0.638 µM and 0.238 µM | 2.1 µM and 0.559 µM | 4.85 µM and 1.05 µM | 50 µM and 12.4 µM | 1.56 µM and 2.34 µM | 11.2 µM and 19.4 µM | 0.648 µM and 0.177 µM | 1.57 µM and 0.423 µM | 2.47 µM and 0.731 µM | 50 µM and 15.9 µM | 1.37 µM and 1.22 µM | 5.41 µM and 9.08 µM |  |  | 1.14 µM and 0.524 µM | 10.3 µM and 10.1 µM |
